The target of experiment [1] is T1, Podocin (Mus musculus, UniProt Q91X05).
T1 construct: expressed in transfected cells; host or cells: HEK 293T
T1 sequence (Q91X05 1-385): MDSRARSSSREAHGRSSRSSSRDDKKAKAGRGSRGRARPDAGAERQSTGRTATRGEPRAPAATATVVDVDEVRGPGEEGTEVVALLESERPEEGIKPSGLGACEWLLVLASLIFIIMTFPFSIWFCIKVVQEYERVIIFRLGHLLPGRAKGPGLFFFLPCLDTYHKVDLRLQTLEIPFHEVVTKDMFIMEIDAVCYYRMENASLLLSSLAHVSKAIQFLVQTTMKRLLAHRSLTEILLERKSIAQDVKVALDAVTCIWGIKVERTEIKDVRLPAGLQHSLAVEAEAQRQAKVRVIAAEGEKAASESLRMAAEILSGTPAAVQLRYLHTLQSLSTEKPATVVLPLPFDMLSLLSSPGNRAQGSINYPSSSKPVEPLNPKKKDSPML
In words: Photoaffinity labeling with photoactivatable lipids in HEK 293T cells. To be noted: Podocin expressed in HEK 293T cells, 16 hours, UV irradiation, autoradiography. The experiment is classed as binding. As for the experimental part: Photoaffinity labeling. Experiments were performed as described infra. For labeling with [3H]photocholesterol or [3H]photophosphatidylcholine, cells were supplemented with delipidized FCS and [3H]photocholesterol-MBCD complex or 10-azi-stearate and [3H]choline were added. After 16 hours, cells were washed three times with Ca/Mg-PBS (PBS containing 0.1 mM CaCl2 and 1 mM MgCl2) and irradiated for 30 minutes in Ca/Mg-PBS with a 100 W mercury lamp. For further analysis, cells were lysed on ice for 1 h in lysis buffer (50 mM Tris-HCl pH 7.4, 140 mM NaCl, 5 mM EDTA, 0.5 mM phenylmethylsulfonyl fluoride (PMSF), 1% Triton® X-100, 0.5% deoxycholate). The lysate was centrifuged for eight minutes at 10,000×g, and the supernatant was subjected to immunoprecipitation using an anti-FLAG monoclonal antibody. Aliquots of the starting extract, the supernatants after immunoprecipitation and the immunoprecipitates were separated by SDS-PAGE (12%) followed by blotting of the proteins on PVDF membrane. Radioactivity was detected by phosphoimaging (Fujifilm BAS-2500, Fuji Photo Film Co., Ltd, Japan) using a Tritium-sensitive BAS-TR2025 imaging plate (Fuji Photo Film Co., Ltd, Japan). From the same membrane, an immunoblot was performed using anti-FLAG antibodies.
Cell Culture Studies. Most cell studies used HEK 293T cells that were grown in DMEM as described [Huber et al. (2001) J. Biol. Chem. 18:18]. […]

In experiment [2] the target is T1, Podocin. Kind of experiment: Detergent-resistant membrane (DRM) fractionation by density gradient centrifugation. The experiment is classed as cell-based. The settings on record: limited cholesterol depletion with MBCD; readdition of cholesterol, FIG. 1D. As for the experimental part:
Preparation of Detergent-Resistant Membrane Domains and Cholesterol Measurement—For preparation of low-density Triton® X-100—insoluble membrane domains (DRM; LDF) HEK 293T cells were homogenized by 20 strokes in a Dounce homogenizer in 1 ml of MBS buffer (250 mM NaCl, 5 mM EDTA, 10 mM Tris, pH 7.4, proteinase inhibitors) in the presence of 1% Triton® X-100 and centrifuged for ten minutes at 3,000×g at 4° C. The lysates were incubated for 45 minutes on ice in the presence of 1% Triton® X-100, adjusted to 45% sucrose and pipetted at the bottom of an ultracentrifuge tube. Samples were then overlaid with a sucrose step gradient (2 ml of 30% sucrose and 1 ml of 5% sucrose in MBS) as described previously {Huber, 2003 #205}. Gradients were centrifuged for 20 hours at 200,000×g at 4° C. in a swing-out rotor, and seven fractions ([…] each) were collected starting from the top and analyzed by SDS-PAGE. Cholesterol was measured using the Amplex® Red Cholesterol Assay Kit (Molecular Probes).
Cell Culture Studies. Most cell studies used HEK 293T cells that were grown in DMEM as described [Huber et al. (2001) J. Biol. Chem. 18:18]. Cholesterol-depleted cells were prepared by growing cells in DMEM with pravastatin (8 μM) for two days and then methyl-β-cyclodextrine (MBCD; 5 mM) for 30 minutes just before the experiment. […]

As to `CC(C)CCC[C@@H](C)[C@H]1CC[C@H]2[C@@H]3CC=C4C[C@@H](O)CC[C@]4(C)[C@H]3CC[C@]12C` [cholesterol], the “binding of photoactivatable lipid to Podocin” value at Podocin [1] is “bound”. Further, at Podocin [2], the “Podocin in DRM fractions” value is “could be reversed”.

Source of the values: patent publication US20090175845A1, “METHODS FOR IDENTIFYING COMPOUNDS THAT MODULATE PHB DOMAIN PROTEIN ACTIVITY AND COMPOSITIONS THEREOF” (THE TRUSTEES OF COLUMBIA UNIVERSITY IN THE CITY OF NEW YORK, priority 2005, published 2009).
